Results reported in patent US10968203B2, “Pyrimidinyl-pyridyloxy-naphthyl compounds and methods of treating IRE1-related diseases and disorders” (Genentech, Inc., priority 2017, dated 2021).
Structures can show the parent of a compound that is named as a salt.

Tested on: XBP1s-luc 293 LUC
Experiment: cellular PD assay, XBP1s-LUC reporter (Example 903)
Type: cell-based
Conditions: Table 1; read-out: XBP1s-luc 293 LUC (IC50)
In short: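 A luciferase fusion, in frame and expressed only when the XBP1 transcript is spliced, served as the readout of cellular IRE1α activity in an XBP1-Luc reporter line.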

SMILES	IC50
Cc1ccc2c(NCCc3cscn3)cccc2c1Oc1ncccc1-c1ccnc(N[C@H]2CCCNC2)n1 [Example 260, (S)-4-(2-((2-Methyl-5-((2-(thiazol-4-yl)ethyl)amino)naphthalen-1-yl)oxy)pyridin-3-yl)-N-(piperidin-3-yl)pyrimidin-2-amine]	0.103 µM
Cc1ccc2c(NCc3ccccn3)cccc2c1Oc1ncccc1-c1ccnc(N[C@H]2CCCNC2)n1 [Example 261, (S)-4-(2-((2-Methyl-5-((pyridin-2-ylmethyl)amino)naphthalen-1-yl)oxy)pyridin-3-yl)-N-(piperidin-3-yl)pyrimidin-2-amine]	0.22 µM
Cc1ccc2c(NCc3ccn(C)n3)cccc2c1Oc1ncccc1-c1ccnc(N[C@H]2CCCNC2)n1 [Example 262, (S)-4-(2-((2-Methyl-5-(((1-methyl-1H-pyrazol-3-yl)methyl)amino)naphthalen-1-yl)oxy)pyridin-3-yl)-N-(piperidin-3-yl)pyrimidin-2-amine]	0.171 µM
Cc1ccc2c(NC(=O)C(C)C)cccc2c1Oc1ncccc1-c1ccnc(N[C@H]2CCCNC2)n1 [Example 263, (S)—N-(6-Methyl-5-((3-(2-(piperidin-3-ylamino)pyrimidin-4-yl)pyridin-2-yl)oxy)naphthalen-1-yl)isobutyramide hydrochloride]	0.362 µM
Cc1ccc2c(NC(=O)CC3(C)CCCCC3)cccc2c1Oc1ncccc1-c1ccnc(N[C@H]2CCCNC2)n1 [Example 264, (S)—N-(6-Methyl-5-((3-(2-(piperidin-3-ylamino)pyrimidin-4-yl)pyridin-2-yl)oxy)naphthalen-1-yl)-2-(1-methylcyclohexyl)acetamide hydrochloride]	0.35 µM
Cc1ccc2c(NCc3cnn(C)c3)cccc2c1Oc1ncccc1-c1ccnc(N[C@H]2CCCNC2)n1 [Example 265, (S)-4-(2-((2-Methyl-5-(((1-methyl-1H-pyrazol-4-yl)methyl)amino)naphthalen-1-yl)oxy)pyridin-3-yl)-N-(piperidin-3-yl)pyrimidin-2-amine]	0.393 µM
Cc1ccc2c(NC(=O)CC3(C)CCCC3)cccc2c1Oc1ncccc1-c1ccnc(N[C@H]2CCCNC2)n1 [Example 267, (S)—N-(6-Methyl-5-((3-(2-(piperidin-3-ylamino)pyrimidin-4-yl)pyridin-2-yl)oxy)naphthalen-1-yl)-2-(1-methylcyclopentyl)acetamide]	0.162 µM
Cc1ccc2c(NC(=O)CC3(C)CC3)cccc2c1Oc1ncccc1-c1ccnc(N[C@H]2CCCNC2)n1 [Example 268, (S)—N-(6-Methyl-5-((3-(2-(piperidin-3-ylamino)pyrimidin-4-yl)pyridin-2-yl)oxy)naphthalen-1-yl)-2-(1-methylcyclopropyl)acetamide]	0.257 µM
Cc1ccc2c(NC(=O)C3CC3)c(F)ccc2c1Oc1ncccc1-c1ccnc(N[C@H]2CCCNC2)n1 [Example 271, (S)—N-(2-Fluoro-6-methyl-5-((3-(2-(piperidin-3-ylamino)pyrimidin-4-yl)pyridin-2-yl)oxy)naphthalen-1-yl)cyclopropanecarboxamide]	0.271 µM
CCn1ccc(Nc2cccc3c(Oc4ncccc4-c4ccnc(N[C@H]5CCCNC5)n4)c(C)ccc23)n1 [Example 272, (S)-4-(2-((5-((1-Ethyl-1H-pyrazol-3-yl)amino)-2-methylnaphthalen-1-yl)oxy)pyridin-3-yl)-N-(piperidin-3-yl)pyrimidin-2-amine]	0.463 µM
Cc1ccc2c(NC(=O)CC(C)(C)C)c(F)ccc2c1Oc1ncccc1-c1ccnc(N[C@H]2CCCNC2)n1 [Example 275, (S)—N-(2-Fluoro-6-methyl-5-((3-(2-(piperidin-3-ylamino)pyrimidin-4-yl)pyridin-2-yl)oxy)naphthalen-1-yl)-3,3-dimethylbutanamide]	0.075 µM
Cc1ccc2c(NS(=O)(=O)CCC(F)(F)F)c(F)ccc2c1Oc1ncccc1-c1ccnc(N[C@H]2CCCNC2)n1 [Example 276, (S)-3,3,3-Trifluoro-N-(2-fluoro-6-methyl-5-((3-(2-(piperidin-3-ylamino)pyrimidin-4-yl)pyridin-2-yl)oxy)naphthalen-1-yl)propane-1-sulfonamide hydrochloride]	0.0441 µM
Cc1ccc2c(NS(=O)(=O)CC(C)C)c(F)ccc2c1Oc1ncccc1-c1ccnc(N[C@H]2CCCNC2)n1 [Example 279, (S)—N-(2-Fluoro-6-methyl-5-((3-(2-(piperidin-3-ylamino)pyrimidin-4-yl)pyridin-2-yl)oxy)naphthalen-1-yl)-2-methylpropane-1-sulfonamide]	0.0247 µM
Cc1cc(CNc2cccc3c(Oc4ncccc4-c4ccnc(N[C@H]5CCCNC5)n4)c(C)ccc23)no1 [Example 280, (S)-4-(2-((2-Methyl-5-(((5-methylisoxazol-3-yl)methyl)amino)naphthalen-1-yl)oxy)pyridin-3-yl)-N-(piperidin-3-yl)pyrimidin-2-amine]	0.134 µM
Cc1ccc2c(NS(=O)(=O)C3CCCCC3)c(F)ccc2c1Oc1ncccc1-c1ccnc(N[C@H]2CCCNC2)n1 [Example 282, (S)—N-(2-Fluoro-6-methyl-5-((3-(2-(piperidin-3-ylamino)pyrimidin-4-yl)pyridin-2-yl)oxy)naphthalen-1-yl)cyclohexanesulfonamide]	0.0248 µM
Cc1ccc2c(NS(=O)(=O)Cc3ccccc3)c(F)ccc2c1Oc1ncccc1-c1ccnc(N[C@H]2CCCNC2)n1 [Example 283, (S)—N-(2-Fluoro-6-methyl-5-((3-(2-(piperidin-3-ylamino)pyrimidin-4-yl)pyridin-2-yl)oxy)naphthalen-1-yl)-1-phenylmethanesulfonamide]	0.00296 µM
Cc1ccc2c(Oc3ncccc3-c3ccnc(N[C@H]4CCCNC4)n3)c(C)ccc2c1NC(=O)C1CC1 [Example 284, (S)—N-(2,6-Dimethyl-5-((3-(2-(piperidin-3-ylamino)pyrimidin-4-yl)pyridin-2-yl)oxy)Naphthalen-1-yl)cyclopropanecarboxamide]	0.0982 µM
CCCS(=O)(=O)Nc1c(C)ccc2c(Oc3ncccc3-c3ccnc(N[C@H]4CCCNC4)n3)c(C)ccc12 [Example 285, (S)—N-(2,6-Dimethyl-5-((3-(2-(piperidin-3-ylamino)pyrimidin-4-yl)pyridin-2-yl)oxy)Naphthalen-1-yl)propane-1-sulfonamide]	0.071 µM
Cc1ccc2c(NC(=O)CC3CC4CCC3C4)cccc2c1Oc1ncccc1-c1ccnc(N[C@H]2CCCNC2)n1 (stereo partly drawn) [Example 286, 2-(Bicyclo[2.2.1]heptan-2-yl)-N-(6-methyl-5-((3-(2-((S)-piperidin-3-ylamino)pyrimidin-4-yl)pyridin-2-yl)oxy)naphthalen-1-yl)acetamide]	0.174 µM
CCc1cnn(-c2cccc3c(Oc4ncccc4-c4ccnc(N[C@H]5CCCNC5)n4)c(C)ccc23)c1 [Example 290, (S)-4-(2-((5-(4-Ethyl-1H-pyrazol-1-yl)-2-methylnaphthalen-1-yl)oxy)pyridin-3-yl)-N-(piperidin-3-yl)pyrimidin-2-amine]	0.409 µM
Cc1ccc2c(NC(=O)[C@@H]3C[C@H]3C(F)F)cccc2c1Oc1ncccc1-c1ccnc(N[C@H]2CCCNC2)n1 [Example 293, (1R,2R)-2-(Difluoromethyl)-N-(6-methyl-5-((3-(2-(((S)-piperidin-3-yl)amino)pyrimidin-4-yl)pyridin-2-yl)oxy)naphthalen-1-yl)cyclopropane-1-carboxamide]	0.0905 µM
